According to patent publication US11168073B2, “3,3-difluoroallylamines or salts thereof and pharmaceutical compositions comprising the same” (YUHAN CORPORATION, priority 2018, dated 2021):
Structures can show the parent of a compound that is named as a salt. Where two headings read alike, the source gives them in different places.

How the values were obtained:
Type in all cases: biochemical
recombinant human VAP-1 = molecular target: T1, recombinant human VAP-1 (Homo sapiens, UniProt Q16853); assay: Activity evaluation on recombinant human VAP-1 (Amplex Red/HRP-coupled hydrogen peroxide assay, benzylamine substrate); settings: read-out: Inhibitory Activity (IC50, nM) human VAP-1
T1 construct: purchased R&D systems
T1 sequence (Q16853 1-763): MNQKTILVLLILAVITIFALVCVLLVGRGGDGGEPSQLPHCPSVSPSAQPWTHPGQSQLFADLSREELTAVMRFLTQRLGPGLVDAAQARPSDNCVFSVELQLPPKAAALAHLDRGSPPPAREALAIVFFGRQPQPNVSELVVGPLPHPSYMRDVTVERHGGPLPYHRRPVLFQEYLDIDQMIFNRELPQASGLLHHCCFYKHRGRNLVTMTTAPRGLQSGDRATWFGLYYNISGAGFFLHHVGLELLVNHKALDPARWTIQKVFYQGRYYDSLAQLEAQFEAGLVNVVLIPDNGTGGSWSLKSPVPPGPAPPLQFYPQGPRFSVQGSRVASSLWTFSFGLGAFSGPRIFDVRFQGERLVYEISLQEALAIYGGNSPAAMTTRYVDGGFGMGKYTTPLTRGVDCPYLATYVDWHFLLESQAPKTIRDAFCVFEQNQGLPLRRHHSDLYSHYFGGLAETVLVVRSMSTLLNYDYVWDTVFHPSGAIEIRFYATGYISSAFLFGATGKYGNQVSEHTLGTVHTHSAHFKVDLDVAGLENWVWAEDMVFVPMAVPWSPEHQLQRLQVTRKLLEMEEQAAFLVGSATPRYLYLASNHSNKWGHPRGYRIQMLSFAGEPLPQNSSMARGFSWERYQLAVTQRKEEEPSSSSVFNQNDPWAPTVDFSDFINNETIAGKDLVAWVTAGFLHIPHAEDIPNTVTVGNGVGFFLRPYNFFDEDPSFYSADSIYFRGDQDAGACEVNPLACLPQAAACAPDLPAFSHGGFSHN
Experimental: (§1) The compounds according to the present technology were evaluated in terms of activity on recombinant human VAP-1 (R&D systems) by measuring the level of hydrogen peroxide in horseradish peroxidase (HRP)-coupled reaction using Amplex Red Hydrogen Peroxide Assay Kit (Molecular Probes, Invitrogen, USA). The experiment was carried out at room temperature using benzylamine as a substrate. In the HRP-coupled reaction, hydrogen peroxide oxidation of 10-acetyl-3,7-dihydroxyphenoxazine (Amplex Red reagent) produces resorufin, which is a highly fluorescent compound. Briefly, the test compound was dissolved in dimethyl sulfoxide (DMSO) at a concentration of 20 mM. The dose-response assessment was made by 1:3 serial dilution in DMSO, thereby creating a 8 point curve. The concentration of the upper part was controlled according to the efficacy of the compounds, followed by the dilution with a reaction buffer solution to obtain a final DMSO concentration of less than 1%. To each well of a 96 black well plate, human VAP-1 purified in 50 mM sodium phosphate buffer solution (pH7.4) was added. The test compounds dissolved in DMSO were incubated with the human VAP-1 enzymes at 37° C. for 30 minutes. After 30-minute incubation, each well was added with a reaction mixture containing 200 uM Amplex Red reagent prepared from 50 mM sodium phosphate buffer solution (pH 7.4), 1 mM benzylamine, and 1 U/mL HRP. Fluorescence intensity was measured at several time points during 1-2 hours using a microplate reader (Flexstation3, Molecular Devices) under the wavelength condition exciting at 544 nm and reading the emission at 590 nm. The inhibitory effect of the compounds was measured as a decrease (%) in the signal rate as compared to the control group without any inhibitor (only diluted DMSO). Data was fixed to a logistic model with four variables and IC50 value was calculated using GraphPad Prism program.

[1] = molecular target: T2, recombinant human MAO-A (monoamine oxidase-A) (Homo sapiens, UniProt P21397); assay: Activity evaluation on recombinant human MAO-A (Amplex Red/HRP-coupled assay, 0.5 mM tyramine substrate); settings: read-out: Inhibitory Activity (IC50, nM) MAO-A
T2 construct: purchased Sigma-Aldrich
T2 sequence (P21397 1-527): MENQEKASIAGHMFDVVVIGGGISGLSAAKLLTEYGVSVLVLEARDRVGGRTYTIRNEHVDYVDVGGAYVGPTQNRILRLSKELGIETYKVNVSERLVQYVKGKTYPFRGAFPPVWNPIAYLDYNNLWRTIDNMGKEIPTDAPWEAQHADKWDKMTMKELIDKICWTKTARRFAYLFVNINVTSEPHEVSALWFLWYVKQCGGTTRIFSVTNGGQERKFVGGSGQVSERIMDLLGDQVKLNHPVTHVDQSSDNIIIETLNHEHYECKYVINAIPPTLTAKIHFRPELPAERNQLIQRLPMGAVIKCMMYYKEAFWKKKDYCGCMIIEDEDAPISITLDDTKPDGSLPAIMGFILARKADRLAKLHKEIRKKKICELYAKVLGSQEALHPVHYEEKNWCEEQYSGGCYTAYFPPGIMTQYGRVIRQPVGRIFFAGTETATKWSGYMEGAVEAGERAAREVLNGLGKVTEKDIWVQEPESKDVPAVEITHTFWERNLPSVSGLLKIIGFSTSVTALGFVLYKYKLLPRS
Experimental: as §1
(§2) In addition, the compounds according to the present technology were evaluated in terms of activity on a recombinant human MAO-A (monoamine oxidase-A, Sigma-Aldrich) and a recombinant human MAO-B (monoamine oxidase-B, Sigma-Aldrich) by using as substrates, 0.5 mM tyramine and 1 mM benzylamine, respectively, with a method similar to the activity evaluation method for recombinant human VAP-1. The compounds according to the present technology were also evaluated in terms of activity on a recombinant human DAO (diamine oxidase, R&D systems) by using as a substrate 1 mM putrescine with a method similar to the activity evaluation method for recombinant human VAP-1.

[2] = molecular target: T3, recombinant human MAO-B (monoamine oxidase-B) (Homo sapiens, UniProt P27338); assay: Activity evaluation on recombinant human MAO-B (Amplex Red/HRP-coupled assay, 1 mM benzylamine substrate); settings: read-out: Inhibitory Activity (IC50, nM) MAO-B
T3 construct: purchased Sigma-Aldrich
T3 sequence (P27338 1-520): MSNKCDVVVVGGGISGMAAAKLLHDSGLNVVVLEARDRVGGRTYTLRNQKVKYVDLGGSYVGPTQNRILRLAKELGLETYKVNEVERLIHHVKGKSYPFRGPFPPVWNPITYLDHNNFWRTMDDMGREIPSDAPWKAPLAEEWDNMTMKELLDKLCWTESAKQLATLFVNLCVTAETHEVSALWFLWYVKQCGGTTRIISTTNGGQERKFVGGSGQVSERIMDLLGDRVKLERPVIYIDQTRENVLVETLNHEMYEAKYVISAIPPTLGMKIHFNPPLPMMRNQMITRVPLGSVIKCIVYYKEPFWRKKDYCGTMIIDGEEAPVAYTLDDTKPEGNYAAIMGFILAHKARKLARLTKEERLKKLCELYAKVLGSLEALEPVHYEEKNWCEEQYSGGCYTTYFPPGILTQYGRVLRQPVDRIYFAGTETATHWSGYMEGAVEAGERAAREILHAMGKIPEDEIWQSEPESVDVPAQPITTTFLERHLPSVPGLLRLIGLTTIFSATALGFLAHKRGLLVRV
Experimental: as §1, §2

[3] = molecular target: T4, recombinant human DAO (diamine oxidase) (Homo sapiens, UniProt P19801); assay: Activity evaluation on recombinant human DAO (Amplex Red/HRP-coupled assay, 1 mM putrescine substrate); settings: read-out: Inhibitory Activity (IC50, nM) DAO
T4 construct: purchased R&D systems
T4 sequence (P19801 20-751): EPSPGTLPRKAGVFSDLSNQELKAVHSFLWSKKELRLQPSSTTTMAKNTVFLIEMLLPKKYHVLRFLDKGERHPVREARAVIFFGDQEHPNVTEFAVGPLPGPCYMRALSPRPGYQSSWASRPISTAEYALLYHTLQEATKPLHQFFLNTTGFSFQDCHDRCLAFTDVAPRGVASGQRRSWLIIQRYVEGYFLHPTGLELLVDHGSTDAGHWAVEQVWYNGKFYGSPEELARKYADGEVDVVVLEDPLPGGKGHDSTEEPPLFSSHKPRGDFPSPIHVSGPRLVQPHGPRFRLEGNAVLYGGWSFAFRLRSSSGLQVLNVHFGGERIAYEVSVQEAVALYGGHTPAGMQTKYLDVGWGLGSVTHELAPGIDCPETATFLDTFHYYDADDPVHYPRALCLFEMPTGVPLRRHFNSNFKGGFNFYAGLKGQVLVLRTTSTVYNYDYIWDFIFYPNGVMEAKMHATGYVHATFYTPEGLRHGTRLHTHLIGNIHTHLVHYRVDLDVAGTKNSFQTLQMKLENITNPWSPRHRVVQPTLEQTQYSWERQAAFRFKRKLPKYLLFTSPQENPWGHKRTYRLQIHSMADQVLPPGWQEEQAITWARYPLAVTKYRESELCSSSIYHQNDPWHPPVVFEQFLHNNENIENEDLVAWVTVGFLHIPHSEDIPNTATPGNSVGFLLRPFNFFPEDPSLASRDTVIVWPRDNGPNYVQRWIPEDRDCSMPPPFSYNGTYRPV
Experimental: as §1, §2

[4] = recombinant human VAP-1, 30 min preincubation at 37° C., 1 mM benzylamine

SMILES	IC50 (recombinant human VAP-1; [4])	IC50 ([1]; 0.5 mM tyramine)	IC50 ([2]; 1 mM benzylamine)	IC50 ([3]; 1 mM putrescine)	IC50 (recombinant human VAP-1; recombinant human VAP-1, benzylamine substrate)	IC50 ([1]; 0.5 mM tyramine substrate)	IC50 ([2]; 1 mM benzylamine substrate)	IC50 ([3]; 1 mM putrescine substrate)
CN(C)c1ccc(-c2ccc(-n3cnn(CC(CN)=C(F)F)c3=O)c(F)c2)cn1 [Example 34, 2-[2-(aminomethyl)-3,3-difluoro-allyl]-4-[4-[6-(dimethylamino)-3-pyridyl]-2-fluoro-phenyl]-1,2,4-triazol-3-one Trifluoroacetate]	0.3 nM	27000 nM	770 nM	250 nM				
COCCNc1ncc(-c2ccc(Cn3cnn(CC(CN)=C(F)F)c3=O)s2)cn1 [Example 118, 2-[2-(aminomethyl)-3,3-difluoro-allyl]-4-[[5-[2-(2-methoxyethylamino)pyrimidin-5-yl]-2-thienyl]methyl]-1,2,4-triazol-3-one Trifluoroacetate]	3.5 nM	> 100000 nM	> 100000 nM	40000 nM				
NCC(Cn1ncn(CCc2ccc(-c3ccc(N4CCNCC4)cc3)s2)c1=O)=C(F)F [Example 174, 2-[2-(aminomethyl)-3,3-difluoro-allyl]-4-[2-[5-(4-piperazin-1-ylphenyl)-2-thienyl]ethyl]-1,2,4-triazol-3-one Ditrifluoroacetate]	1.3 nM	> 100000 nM	> 100000 nM	29 nM				
COCCNc1ncc(-c2cnc(-n3cnn(CC(CN)=C(F)F)c3=O)c(C)c2)cn1 [Example 222, 2-[2-(aminomethyl)-3,3-difluoro-allyl]-4-[5-[2-(2-methoxyethylamino)pyrimidin-5-yl]-3-methyl-2-pyridyl]-1,2,4-triazol-3-one Trifluoroacetate]					1 nM	> 100000 nM	> 100000 nM	4000 nM
CS(=O)(=O)c1ccc(-c2ccc(-n3cnn(CC(CN)=C(F)F)c3=O)c(F)c2)cc1 [Example 31, 2-[2-(aminomethyl)-3,3-difluoro-allyl]-4-[2-fluoro-4-(4-methylsulfonylphenyl)phenyl]-1,2,4-triazol-3-one Trifluoroacetate]	0.2 nM	> 100000 nM	870 nM	59 nM				
Cc1cc(-n2cnn(CC(CN)=C(F)F)c2=O)cnc1-c1cc(C)c2c(c1)CCC(=O)N2 [Example 80, 6-[5-[1-[2-(aminomethyl)-3,3-difluoro-allyl]-5-oxo-1,2,4-triazol-4-yl]-3-methyl-2-pyridyl]-8-methyl-3,4-dihydro-1H-quinolin-2-one Trifluoroacetate]	0.4 nM	> 100000 nM	5300 nM	36 nM				
CNC(=O)c1ccc(-c2ccc(Cn3cnn(CC(CN)=C(F)F)c3=O)s2)cc1 [Example 104, 4-[5-[[1-[2-(aminomethyl)-3,3-difluoro-allyl]-5-oxo-1,2,4-triazol-4-yl]methyl]-2-thienyl]-N-methyl-benzamide trifluoroacetate]	0.5 nM	> 100000 nM	> 10000 nM	31000 nM				
NCC(Cn1ncn(-c2ccc(-c3ccc(N4CCNCC4)cc3)nc2)c1=O)=C(F)F [Example 39, 2-[2-(aminomethyl)-3,3-difluoro-allyl]-4-[6-(4-piperazin-1-ylphenyl)-3-pyridyl]-1,2,4-triazol-3-one Ditrifluoroacetate]	1.2 nM	> 100000 nM	46000 nM	310 nM				
NCC(Cn1ncn(Cc2ccc(-c3cnc4c(c3)CCCN4)s2)c1=O)=C(F)F [Example 145, 2-[2-(aminomethyl)-3,3-difluoro-allyl]-4-[[5-(5,6,7,8-tetrahydro-1,8-naphthyridin-3-yl)-2-thienyl]methyl]-1,2,4-triazol-3-one Ditrifluoroacetate]	0.8 nM	> 100000 nM	> 100000 nM	> 100000 nM				
NCC(Cn1ncn(Cc2ccc(-c3cccc(N4CCNCC4)c3)s2)c1=O)=C(F)F [Example 107, 2-[2-(aminomethyl)-3,3-difluoro-allyl]-4-[[5-(3-piperazin-1-ylphenyl)-2-thienyl]methyl]-1,2,4-triazol-3-one Ditrifluoroacetate]	3.5 nM	> 100000 nM	46000 nM	12000 nM				
